# Assay results taken from paper PMC7297817, “Pharmacological Characterization of a Betaine/GABA Transporter 1 (BGT1) Inhibitor Displaying an Unusual Biphasic Inhibition Profile and Anti-seizure Effects” (Neurochemical Research, 2020).
# Entries after “also recorded” stand apart in the source; their conditions may differ. Like-named read-outs stand apart in the source and are kept apart here.
# Key:
# [1] = target: T1, mGAT1 (Mus musculus, UniProt P31648); assay: [3H]GABA uptake at mGAT1 stably expressed in HEK-293 cells; format: cell-based
# T1 construct: expressed in transfected cells
# Procedure: (§1) The HEK-293 and Flp-In CHO cell lines stably expressing mouse (m) and human (h) GATs, respectively, have been described previously and were cultured accordingly. The tsA201 cell line was used for transient expression while the MDCK II cell line express BGT1 endogenously. Both cell lines were cultured as described. tsA201 cells were transfected with DNA constructs (8 μg per 10 cm dish if not otherwise mentioned) using 40 μL PolyFect transfection reagent according to the manufacturer’s protocol (Qiagen, Venlo, Netherlands). The DNA constructs encoding hBGT1, hGAT1-3 [36], the mutated constructs hBGT1 Q299 and hGAT3 L314Q described previously, and hBGT Y453A were synthesized and sequence validated by Genscript (NJ, USA).
# (§2) The [^3H]GABA competition uptake assay was performed as previously described. A minor change, however, was introduced for uptake in MDCK II cells, in which 100 nM [^3H]GABA was used for a 15 min incubation period at 37 °C instead of 30 nM [^3H]GABA and 3 min incubation. Studies related to the inhibition curves with GABA and BPDBA at hBGT1 were obtained both with and without the presence of 10 μM ATP during the [^3H]GABA uptake assay.
# (§3) The [^3H]GABA uptake data was normalized to the percentage of total uptake in the individual experiments in the presence of the lowest compound concentration or no compound present. Data presented is the pooled data of at least three independent experiments with three technical replicates. Concentration–response curves (CRCs) were fitted with GraphPad Prism (version 8.2.1, Yosemite, GraphPad Software, San Diego, CA, USA) by non-linear regression to the sigmoidal concentration response model: Y=Bottom+(Top-Bottom)/1+10^LogIC50-X∗nH where Top is the Top plateau, Bottom is the Bottom plateau, X is the logarithm of the concentration of the compound, LogIC50 is the concentration giving a response halfway between Top and Bottom,and nH is the Hill slope.
# (§4) The best fit for CRCs obtained with the [^3H]GABA uptake assay was identified by the extra-sum-of-squares F test (for convenience referred to as F test).
# [2] = target: T2, mGAT2 (Mus musculus, UniProt P31649); assay: [3H]GABA uptake at mGAT2 stably expressed in HEK-293 cells; format: cell-based
# T2 construct: expressed in transfected cells
# T2 sequence (P31649 whole entry): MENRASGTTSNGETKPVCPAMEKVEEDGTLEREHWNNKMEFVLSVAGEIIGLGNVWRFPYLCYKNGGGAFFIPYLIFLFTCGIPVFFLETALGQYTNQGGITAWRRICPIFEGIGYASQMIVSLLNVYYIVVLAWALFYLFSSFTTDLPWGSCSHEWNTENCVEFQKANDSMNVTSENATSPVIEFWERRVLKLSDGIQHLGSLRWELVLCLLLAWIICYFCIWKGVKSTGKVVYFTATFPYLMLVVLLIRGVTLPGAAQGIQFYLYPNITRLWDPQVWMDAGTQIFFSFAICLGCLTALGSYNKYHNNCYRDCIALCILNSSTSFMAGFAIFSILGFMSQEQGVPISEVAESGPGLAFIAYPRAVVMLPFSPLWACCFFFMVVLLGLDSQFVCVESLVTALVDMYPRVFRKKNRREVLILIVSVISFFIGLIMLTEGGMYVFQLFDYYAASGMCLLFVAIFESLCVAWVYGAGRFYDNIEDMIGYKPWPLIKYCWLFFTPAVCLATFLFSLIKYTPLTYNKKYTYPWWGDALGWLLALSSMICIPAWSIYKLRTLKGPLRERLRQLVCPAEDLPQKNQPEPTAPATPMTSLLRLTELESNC
# Procedure: as §1, §2
# (§5) The [^3H]GABA uptake data was normalized to the percentage of total uptake in the individual experiments in the presence of the lowest compound concentration or no compound present. […]
# [3] = target: T3, mGAT3 (Mus musculus, UniProt P31650); assay: [3H]GABA uptake at mGAT3 stably expressed in HEK-293 cells; format: cell-based; settings: N=3
# T3 construct: expressed in transfected cells
# T3 sequence (P31650 whole entry): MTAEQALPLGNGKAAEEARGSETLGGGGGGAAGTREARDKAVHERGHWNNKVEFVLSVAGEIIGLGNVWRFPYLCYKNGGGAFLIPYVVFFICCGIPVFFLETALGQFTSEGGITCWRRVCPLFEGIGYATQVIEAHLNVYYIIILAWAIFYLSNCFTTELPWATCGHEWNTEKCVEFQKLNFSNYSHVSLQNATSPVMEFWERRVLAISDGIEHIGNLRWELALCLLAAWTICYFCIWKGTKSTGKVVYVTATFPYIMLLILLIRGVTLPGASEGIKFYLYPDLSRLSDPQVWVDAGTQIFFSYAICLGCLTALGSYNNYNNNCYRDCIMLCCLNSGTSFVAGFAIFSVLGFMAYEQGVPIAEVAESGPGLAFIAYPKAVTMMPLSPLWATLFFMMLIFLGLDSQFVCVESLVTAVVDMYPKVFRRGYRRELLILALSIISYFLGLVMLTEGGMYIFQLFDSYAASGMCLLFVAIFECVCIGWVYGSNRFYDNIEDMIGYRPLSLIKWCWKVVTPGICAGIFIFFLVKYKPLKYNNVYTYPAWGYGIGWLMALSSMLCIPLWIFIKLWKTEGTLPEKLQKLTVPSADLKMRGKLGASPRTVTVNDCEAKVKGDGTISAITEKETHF
# Procedure: as §1, §2, §5
# [4] = target: T4, hGAT2 (Homo sapiens, UniProt Q9NSD5); assay: [3H]GABA uptake at hGAT2 stably expressed in CHO cells; format: cell-based
# T4 construct: expressed in transfected cells
# T4 sequence (Q9NSD5 1-602): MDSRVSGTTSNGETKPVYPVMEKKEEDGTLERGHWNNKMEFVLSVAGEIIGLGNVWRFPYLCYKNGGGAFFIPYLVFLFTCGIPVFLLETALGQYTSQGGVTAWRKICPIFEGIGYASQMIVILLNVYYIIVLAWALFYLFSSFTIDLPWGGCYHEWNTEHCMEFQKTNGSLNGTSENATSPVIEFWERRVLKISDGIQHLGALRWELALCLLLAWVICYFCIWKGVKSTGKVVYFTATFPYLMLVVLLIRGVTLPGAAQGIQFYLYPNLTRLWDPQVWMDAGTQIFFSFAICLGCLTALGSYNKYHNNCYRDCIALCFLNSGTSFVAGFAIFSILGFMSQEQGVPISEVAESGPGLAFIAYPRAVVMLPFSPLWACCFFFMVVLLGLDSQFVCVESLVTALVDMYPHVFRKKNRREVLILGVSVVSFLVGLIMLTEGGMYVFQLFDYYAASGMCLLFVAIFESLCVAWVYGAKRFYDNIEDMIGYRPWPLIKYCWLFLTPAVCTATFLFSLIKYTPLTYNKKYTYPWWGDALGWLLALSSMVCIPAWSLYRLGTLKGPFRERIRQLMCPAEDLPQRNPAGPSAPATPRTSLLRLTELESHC
# Procedure: as §1, §2, §3, §4
# [5] = target: T5, hBGT1 Q299L (Homo sapiens, UniProt P48065, Q299L); assay: [3H]GABA uptake at hBGT1 Q299L mutant in tsA201 cells; format: cell-based; settings: data not shown
# T5 construct: expressed in transfected cells; host or cells: tsA201 (transient)
# T5 sequence (P48065 whole entry Q299L): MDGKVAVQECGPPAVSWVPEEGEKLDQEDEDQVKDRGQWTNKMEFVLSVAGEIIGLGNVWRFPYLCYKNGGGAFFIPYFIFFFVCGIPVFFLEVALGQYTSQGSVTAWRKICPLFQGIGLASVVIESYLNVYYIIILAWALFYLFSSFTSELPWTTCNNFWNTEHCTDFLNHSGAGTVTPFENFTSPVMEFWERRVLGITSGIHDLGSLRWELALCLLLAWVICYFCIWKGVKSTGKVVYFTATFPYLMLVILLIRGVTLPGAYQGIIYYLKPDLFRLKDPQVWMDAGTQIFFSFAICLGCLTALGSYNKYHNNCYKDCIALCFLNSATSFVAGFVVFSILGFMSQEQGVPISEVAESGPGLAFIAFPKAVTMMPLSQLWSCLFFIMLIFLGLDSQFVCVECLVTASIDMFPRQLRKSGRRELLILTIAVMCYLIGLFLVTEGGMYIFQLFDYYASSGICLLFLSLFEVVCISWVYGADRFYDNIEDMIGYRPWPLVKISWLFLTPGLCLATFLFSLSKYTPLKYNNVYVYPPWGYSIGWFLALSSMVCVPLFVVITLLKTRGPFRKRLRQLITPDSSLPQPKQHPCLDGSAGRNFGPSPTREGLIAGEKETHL
# Procedure: as §1, §2, §5
# [6] = target: T6, hBGT1 Y453A (Homo sapiens, UniProt P48065, Y453A); assay: [3H]GABA uptake at hBGT1 Y453A mutant in tsA201 cells; format: cell-based; settings: data not shown
# T6 construct: host or cells: tsA201 (transient)
# T6 sequence (P48065 whole entry Y453A): as the sequence (P48065 whole entry Q299L) above, with L299Q, Y453A counted along it
# Procedure: as §1, §2, §5
# [7] = target: T7, 5-HT2B (Homo sapiens, UniProt P41595); assay: NIMH PDSP radioligand binding, 5-HT2B; settings: radioligand [3H]LSD
# T7 construct: NIMH PDSP (screening service)
# T7 sequence (P41595 whole entry, species assumed): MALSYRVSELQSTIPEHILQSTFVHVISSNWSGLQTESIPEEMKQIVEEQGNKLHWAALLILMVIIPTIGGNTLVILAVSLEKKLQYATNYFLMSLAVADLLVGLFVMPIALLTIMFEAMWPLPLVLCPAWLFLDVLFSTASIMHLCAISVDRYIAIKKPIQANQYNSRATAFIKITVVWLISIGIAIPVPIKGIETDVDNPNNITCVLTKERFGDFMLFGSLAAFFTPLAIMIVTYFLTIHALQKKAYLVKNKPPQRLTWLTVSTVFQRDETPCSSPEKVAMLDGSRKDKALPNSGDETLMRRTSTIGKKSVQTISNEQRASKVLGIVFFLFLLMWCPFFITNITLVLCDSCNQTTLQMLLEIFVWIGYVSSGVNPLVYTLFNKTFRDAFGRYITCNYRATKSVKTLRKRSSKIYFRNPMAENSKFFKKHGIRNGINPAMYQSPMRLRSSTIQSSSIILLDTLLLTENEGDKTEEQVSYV
# [8] = target: T8, 5-HT7 (Homo sapiens, UniProt P34969); assay: NIMH PDSP radioligand binding, 5-HT7; settings: radioligand [3H]LSD, n=4
# T8 construct: purchased NIMH Psychoactive Drug Screening Program (PDSP)
# [9] = target: T9, Beta3 (Homo sapiens, UniProt P13945); assay: NIMH PDSP radioligand binding, Beta3; settings: radioligand [3H]CGP12177, n=4
# T9 construct: purchased NIMH Psychoactive Drug Screening Program (PDSP)
# T9 sequence (P13945 whole entry): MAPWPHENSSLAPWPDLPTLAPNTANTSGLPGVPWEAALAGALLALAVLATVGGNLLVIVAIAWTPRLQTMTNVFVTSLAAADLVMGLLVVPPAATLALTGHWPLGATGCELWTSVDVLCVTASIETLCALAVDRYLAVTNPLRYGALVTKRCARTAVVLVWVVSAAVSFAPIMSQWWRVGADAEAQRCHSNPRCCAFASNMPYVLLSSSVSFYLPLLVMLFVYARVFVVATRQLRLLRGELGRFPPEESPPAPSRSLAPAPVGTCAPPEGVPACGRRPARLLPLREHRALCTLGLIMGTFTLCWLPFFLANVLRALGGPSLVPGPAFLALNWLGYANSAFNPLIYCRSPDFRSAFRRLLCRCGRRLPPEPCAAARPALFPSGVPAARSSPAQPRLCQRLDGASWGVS
# [10] = test system: GABAA rat brain; assay: NIMH PDSP radioligand binding, GABAA rat brain; settings: 10 μM; radioligand [3H]muscimol; n=4
# Procedure: IC50 values in μM (Ki μM)^a. The targets in bold were inhibited by >35% at 10 μM.
# [11] = target: T10, SERT (Homo sapiens, UniProt P31645); assay: NIMH PDSP radioligand binding, SERT; settings: radioligand [3H]citalopram, n=4
# T10 construct: purchased NIMH Psychoactive Drug Screening Program (PDSP)
# T10 sequence (P31645 whole entry): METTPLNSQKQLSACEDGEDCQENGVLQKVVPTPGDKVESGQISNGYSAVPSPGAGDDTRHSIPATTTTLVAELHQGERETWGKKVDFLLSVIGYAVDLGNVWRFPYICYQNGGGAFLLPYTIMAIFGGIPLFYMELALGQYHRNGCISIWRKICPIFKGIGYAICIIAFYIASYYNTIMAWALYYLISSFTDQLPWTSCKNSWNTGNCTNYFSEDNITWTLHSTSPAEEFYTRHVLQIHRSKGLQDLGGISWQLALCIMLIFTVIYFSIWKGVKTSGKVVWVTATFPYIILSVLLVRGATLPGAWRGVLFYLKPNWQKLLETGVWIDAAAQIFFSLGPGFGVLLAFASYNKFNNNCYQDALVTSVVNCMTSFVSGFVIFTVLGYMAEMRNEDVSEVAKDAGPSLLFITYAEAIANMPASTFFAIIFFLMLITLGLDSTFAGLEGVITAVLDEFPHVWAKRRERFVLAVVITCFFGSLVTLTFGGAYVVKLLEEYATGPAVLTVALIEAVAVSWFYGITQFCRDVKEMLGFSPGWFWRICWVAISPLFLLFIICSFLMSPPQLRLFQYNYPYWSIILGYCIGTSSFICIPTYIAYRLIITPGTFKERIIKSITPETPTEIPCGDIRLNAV
# [12] = target: T11, M5 (Homo sapiens, UniProt P08912); assay: NIMH PDSP radioligand binding, M5
# T11 construct: purchased NIMH Psychoactive Drug Screening Program (PDSP)
# T11 sequence (P08912 whole entry): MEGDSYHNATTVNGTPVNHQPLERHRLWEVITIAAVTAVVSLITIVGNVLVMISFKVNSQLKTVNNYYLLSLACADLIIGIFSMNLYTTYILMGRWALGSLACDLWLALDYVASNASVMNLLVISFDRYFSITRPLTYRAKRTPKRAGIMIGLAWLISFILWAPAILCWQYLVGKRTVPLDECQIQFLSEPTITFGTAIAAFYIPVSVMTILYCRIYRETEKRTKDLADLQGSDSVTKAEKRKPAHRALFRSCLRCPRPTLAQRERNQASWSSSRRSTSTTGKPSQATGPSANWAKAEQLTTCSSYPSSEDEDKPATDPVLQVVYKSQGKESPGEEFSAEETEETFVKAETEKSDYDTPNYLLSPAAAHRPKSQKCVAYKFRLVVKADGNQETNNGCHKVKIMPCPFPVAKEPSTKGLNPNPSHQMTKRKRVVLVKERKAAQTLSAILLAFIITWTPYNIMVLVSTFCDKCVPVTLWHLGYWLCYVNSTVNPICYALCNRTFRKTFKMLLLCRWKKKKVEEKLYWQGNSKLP
# [13] = target: T12, KOR (Homo sapiens, UniProt P41145); assay: NIMH PDSP radioligand binding, KOR; settings: radioligand [3H]U69593, n=4
# T12 construct: purchased NIMH Psychoactive Drug Screening Program (PDSP)
# [14] = target: T13, MOR (Homo sapiens, UniProt P35372); assay: NIMH PDSP radioligand binding, MOR; settings: radioligand [3H]DAMGO, n=4
# T13 construct: purchased NIMH Psychoactive Drug Screening Program (PDSP)
# T13 sequence (P35372 whole entry): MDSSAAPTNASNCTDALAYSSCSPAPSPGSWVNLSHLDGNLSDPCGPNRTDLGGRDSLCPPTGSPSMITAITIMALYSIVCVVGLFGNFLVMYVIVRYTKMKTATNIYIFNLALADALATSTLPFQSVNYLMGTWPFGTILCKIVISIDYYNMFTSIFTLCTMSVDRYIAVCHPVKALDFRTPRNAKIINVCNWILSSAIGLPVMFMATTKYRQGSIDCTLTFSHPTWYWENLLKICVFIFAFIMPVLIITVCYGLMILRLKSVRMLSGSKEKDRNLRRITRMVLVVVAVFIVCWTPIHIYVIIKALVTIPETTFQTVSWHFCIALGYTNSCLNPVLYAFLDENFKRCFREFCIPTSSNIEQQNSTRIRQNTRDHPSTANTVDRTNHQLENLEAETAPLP
structure (smiles),measurement,setting,value
"Cc1ccsc1C(=CCCN(C)[C@H]1CCCC[C@H]1C(=O)O)c1sccc1C [SBV2-114, (1R,2S)-2-((4,4-bis(3-methylthiophen-2-yl)but-3-en-yl)(methyl)amino)cyclohexanecarboxylic acid]",IC50,"[1]; ambiguous fit, N=1 experiment, read-out: IC50",> 1000 µM
same,Frac,"[1]; biphasic fit, N=1 experiment",0.14
same,IC50,"[1]; biphasic fit, N=1 experiment, read-out: pIC50, high affinity component (converted)",0.417 µM
same,IC50,"[1]; monophasic fit, N=1 experiment, read-out: IC50",> 1000 µM
same,Fit,"[1]; preferred model per experiment, F test",Biphasic; also recorded: Monophasic; also recorded: Ambiguous
same,IC50,"[1]; read-out: IC50, low affinity component, biphasic fit, N=1 experiment",755 µM
same,IC50,[2],> 1000 µM
same,Fit,"[2]; preferred model, N=3",Ambiguous
same,IC50,[3]; ambiguous fit,> 1000 µM
same,Fit,[3]; preferred model,Ambiguous
same,IC50,"[4]; ambiguous fit, N=3, CHO, read-out: IC50",525 µM
same,Frac,"[4]; biphasic fit, N=1, CHO",0.06
same,IC50,"[4]; biphasic fit, N=1, CHO, read-out: IC50, high affinity component",3.31 µM
same,Fit,[4]; preferred model per experiment,Biphasic; also recorded: Ambiguous
same,IC50,"[4]; read-out: IC50, low affinity component, biphasic fit, N=1, CHO",550 µM
same,inhibition profile and activity at hBGT1 Q299L,[5],clear biphasic inhibition profile and no significant altered activity
same,activity at hBGT1 Y453A,[6],did not show the expected decrease in activity
same,inhibition at 10 µM,"[7]; 10 μM, n=4",96.8%
same,Ki,[7]; full curve,0.42 µM
same,inhibition at 10 µM,[8],14.1%
same,inhibition at 10 µM,[9],8.3%
same,% inhibition,[10],-1.5%
same,inhibition at 10 µM,[11],18.8%
same,inhibition at 10 µM,[12],23.5%
same,inhibition at 10 µM,[13],40.8%
same,inhibition at 10 µM,[14],42%
